From US20060281899A1, “Mutants of biotin binding protein” (priority 2002, published 2006)
Like-named read-outs stand apart in the source and are kept apart here.

Key:
[1] = 2-iminobiotin cuvette, cited from earlier work
[2] = 2-iminobiotin surface, values from Hytönen 2003, cited from earlier work
[3] = biotin cuvette; values from Hytönen 2003; cited from earlier work
[4] = IAsys optical biosensor, affinity of avidin and avidin mutants towards 2-iminobiotin; type: binding
Procedure: Reversibility of biotin binding was measured for avidin and the mutants with an IAsys optical biosensor (Laitinen, O. H. et al., FEBS Lett 461 (1999), 52-8). Protein samples were allowed to bind to a biotin-aminosilane cuvette in PBS containing 1 M NaCl. After the equilibrium was reached, biotin-containing buffer was added and the dissociation of the proteins was monitored. The affinities of the proteins towards 2-iminobiotin were determined with an IAsys optical biosensor (Marttila, A. T. et al. FEBS Lett 441 (1998), 313-7). Biotin-binding activity of the mutants Avd-ci and Avd-ccci after heat treatment was studied with a microtiter plate assay. Protein samples, 5 μg/ml concentration in PBS, were heated for various time periods at 99.9° C. and then chilled on ice. The samples were transferred to a Nunc Maxisorp-plate and incubated at 37° C. for 2 h. The wells were washed three times with PBS-Tween (0.05% v/v). After that the wells were blocked with PBS containing 1% BSA at 37° C. for 30 minutes and washed again with PBS-Tween. Next, biotinylated alkaline phosphatase (Sigma) in PBS, 1% BSA was added and incubated at 37° C. for one hour. Once again, the wells were washed with PBS-Tween and the PNPP substrate in DEA buffer (1 mg/ml) was applied to the wells. The absorbances at 405 nm were measured after incubation for 45 minutes.

[5] = Differential scanning calorimetry of the avidin mutants; type: physicochemical; conditions: DSC, 100 mM Na-phosphate buffer pH 7.4
Procedure: In order to study the thermal stability of the purified avidin mutants, they were subjected to analysis by differential scanning calorimetry. A Nano II differential scanning calorimeter (Calorimetric Science Corporation, Provo, Utah) was used. […] The reference cell was filled with the same buffer that the sample proteins were dissolved in (100 mM Na-phosphate buffer pH 7.4). The thermograms were recorded as a function of temperature, between 25 and 130° C. at a temperature scan rate of 55.6° C./h. The baselines were subtracted and the transition midpoints (Tm) of the samples were calculated using proprietary software provided by the instrument manufacturer.

[6] = Differential scanning calorimetry of avidin and AVR4/5 forms; type: physicochemical
Procedure: The thermodynamics of the heat-induced unfolding of the proteins were studied using DSC. The transition midpoint of heat-induced denaturation (Tm) of the avidin and different AVR4/5 forms was studied using a Nano II differential scanning calorimeter (Calorimetric Sciences Corporation, Provo, Utah, USA). The reference cell was filled with buffer whereas the sample cell was filled with proteins dissolved in 50 mM sodium phosphate buffer, pH 7.0 containing 100 mM NaCl. Avidin and AVR4/5(C124S) were also analyzed in 50 mM Na-acetate pH 4.0 containing 100 mM NaCl. Furthermore, AVR4/5 was analyzed in the presence of 2-mercaptoethanol (0.4% v/v). The samples (1.6-9.6 μM) were analyzed both in the absence and presence of a three fold molar excess of biotin/subunit. All samples were degassed before being loaded into the DSC. The thermograms were recorded as a function of temperature; between 25 and 130° C. at a rate of 55.6° C./h (Gonzalez, M., Argarana, C. E. & Fidelio, G. D. (1999) Biomol. Eng. 16, 67-72; Nordlund, H. R., Laitinen, O. H., Uotila, S. T., Nyholm, T., Hytönen, V. P., Slotte, J. P. & Kulomaa, M. S. (2003) J. Biol. Chem. 278, 2479-2483). Data was analyzed using Microcal Origin 6.0 and Cpcalc 2.1 (Applied Thermodynamics, Hunt Valley, Md.). The change in heat capacity upon unfolding (ΔCp) was measured for avidin and AVR4/5(C124S) using DSC data from measurements in pH 4.0 and 7.0. ΔCp was then obtained from the slope of ΔH vs. Tm (Liu, Y. & Sturtevant, J. M. (1996) Biochemistry 35, 3059-3062).

- Kd [4]: 0.025 µM
Substance: wt Avidin: Wild-type chicken avidin (SEQ ID NO 1), purified from chicken egg-white [reference compound]
- Kd ([1]; avidin values from Laitinen 2002 / Marttila 2000, read-out: Kd calculated from the equilibrium response data): 0.017 µM
- kass ([1]; avidin values from literature): (1.6 ± 0.7) × 10^4 M^−1 s^−1
- Kd ([1]; avidin values from literature, read-out: Kd calculated directly from the binding curves): 0.02 µM
- kass [2]: (5.5 ± 0.5) × 10^4 M^−1s^−1
- kdiss [2]: (1.9 ± 1.4) × 10^−3 s^−1
- Kd ([2]; read-out: Kd detected directly from the binding curves): 0.034 µM
- Kd ([2]; read-out: Kd detected from the equilibrium response data): 0.022 µM
- Reversibility of binding to biotin [3]: 4 ± 2%
- Tm ([5]; + biotin (biotin:avidin molar ratio 3:1)): 118.2 ± 0.1 °C
- Tm ([5]; without biotin): 85.5 ± 0.1 °C
- Tm at pH 4 ([6]; 50 mM Na-acetate pH 4.0, 100 mM NaCl): 76.6±0.2 °C
- DSC Tm(−biotin) ([6]; 50 mM sodium phosphate pH 7.0, 100 mM NaCl): 83.5 ± 0.1 °C
- ΔTm ([6]; change in Tm upon addition of a three-fold molar excess of biotin): 33.5 °C
- ΔH of unfolding ([6]; sample without biotin): 78.6 ± 1.2 kcal/mol
- ΔCp (change in heat capacity upon unfolding) ([6]; slope of ΔH vs. Tm, DSC at pH 4.0 and 7.0): 0.00366 kcal/mol
- DSC Tm (+biotin) ([6]; three-fold molar excess of biotin, pH 7.0): 117.0 ± 0.7 °C
